Data taken from patent US8153593B2, “Transglutaminase inhibitors and methods of use thereof” (The Board of Trustees of the Leland Stanford Junior …, priority 2003, dated 2012).

Molecular target: T1, jejunal TG2 (Rattus norvegicus, UniProt Q9WVJ6)
T1 construct: from tissue; host or cells: rat jejunal mucosa
T1 sequence (Q9WVJ6 1-686): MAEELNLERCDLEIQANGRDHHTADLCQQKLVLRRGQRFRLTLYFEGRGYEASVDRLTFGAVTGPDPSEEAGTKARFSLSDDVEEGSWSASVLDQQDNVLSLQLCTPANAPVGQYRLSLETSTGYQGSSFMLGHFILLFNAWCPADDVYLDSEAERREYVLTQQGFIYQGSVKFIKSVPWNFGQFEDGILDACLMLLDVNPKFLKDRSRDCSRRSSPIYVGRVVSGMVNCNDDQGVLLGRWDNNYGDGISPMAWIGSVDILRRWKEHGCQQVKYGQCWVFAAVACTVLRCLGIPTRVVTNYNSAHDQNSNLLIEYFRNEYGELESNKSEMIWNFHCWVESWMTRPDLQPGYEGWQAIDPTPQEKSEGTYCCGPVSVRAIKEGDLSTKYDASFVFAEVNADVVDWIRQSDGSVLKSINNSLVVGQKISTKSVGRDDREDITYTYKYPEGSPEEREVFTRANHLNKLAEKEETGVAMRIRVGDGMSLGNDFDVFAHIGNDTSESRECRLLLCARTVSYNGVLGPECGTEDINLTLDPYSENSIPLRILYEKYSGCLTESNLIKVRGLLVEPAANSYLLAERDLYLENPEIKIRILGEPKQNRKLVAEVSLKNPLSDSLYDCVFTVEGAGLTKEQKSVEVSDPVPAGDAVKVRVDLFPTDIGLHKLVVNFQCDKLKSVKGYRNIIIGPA
Test: Jejunal mucosal TG2 activity after oral dosing in kneaded gluten vehicle
Format: in vivo, rats
Conditions: 35 mg/kg oral in kneaded gluten vehicle, 1 h after administration
Description: Due to the absence of an appropriate animal model for Celiac Sprue, the therapeutic benefit of TG2 inhibitors for this disease can only be validated in patients. Our goal is therefore to identify a safe, oral TG2 inhibitor that can block mucosal TG2 activity in the upper small intestine of Celiac Sprue patients. Such an agent could be used in the context of a short (2 week) blinded crossover trial in Celiac Sprue patients to determine if TG2 inhibition protects a Celiac Sprue patient from gluten-induced malabsorption. From available data, KCC009 may be precisely such a compound. […] To test whether orally administered KCC009 can inhibit jejunal TG2 activity, adult male rats were dosed with 35 mg/kg KCC009 in a kneaded gluten vehicle. Animals were sacrificed 1 h after administration of either vehicle-gluten (n=3) or drug-gluten (n=4), and jejunal mucosa was harvested. In vehicle treated animals, jejunal TG2 activity was 21±7 pmol/min/mg protein, whereas in KCC009 treated rats TG2 activity of 5.5±3 pmol/min/mg protein was observed. Thus, a suitable oral formulation may therefore enable local delivery of KCC009 to intestinal mucosa.

O=C(N[C@@H](Cc1ccc(O)cc1)C(=O)NCC1CC(Br)=NO1)OCc1ccccc1 (stereo partly shown) [Compound 59]
jejunal TG2 activity: 5.5±3 pmol/min/mg protein
